The nature of series [1]: Cytotoxicity Huh-7 cells (MTS/PMS). Conditions: human, 3-day incubation. The class given is cell-based. Here is the method:
Cytotoxicity of compounds for use in treating hyperproliferative diseases or disorders was tested in Huh-7 cells using tetrazolium salt MTS combined with the electron acceptor PMS in a 96-well format. Six doses of each compound was tested, starting at about 1.2 μM to 0.4 μM serially diluted in a final 1% DMSO solution in DMEM/F12 media. Terfenadine was used as a positive control. Cells were seeded at 2.5×10^5 cells/mL in each well of the 96-well plates in a final volume of 0.1 mL, and then incubated at 37° C. in the presence of 5% CO2 overnight. Compounds (in media) were added the following day and the treated cells were incubated another 3-days at 37° C. in the presence of 5% CO2. After the 3-day incubation, 20 μL of MTS/PMS (3-(4,5-dimethylthiazol-2-yl)-5-(3-carboxymethoxy-phenyl)-2-(4-sulfophenyl)-2H-tetrazolium) was added to each well. After about a one to four hour incubation of MTS/PMS at 37° C. and 5% CO2—that is, until an OD490 absorbance of ≧0.6 for the wells containing cells with media only, the level of cytotoxicity at each concentration was calculated. […] Dose response results from the cytotoxicity assay (CC50) are provided in Table 4 in comparison with IC50 data (from Table 2)

A further series addresses T1, human polymerase alpha (Homo sapiens, UniProt P09884).
T1 construct: purchased Replizyme Ltd (Heslington, York, UK)
T1 sequence (P09884 1-1462): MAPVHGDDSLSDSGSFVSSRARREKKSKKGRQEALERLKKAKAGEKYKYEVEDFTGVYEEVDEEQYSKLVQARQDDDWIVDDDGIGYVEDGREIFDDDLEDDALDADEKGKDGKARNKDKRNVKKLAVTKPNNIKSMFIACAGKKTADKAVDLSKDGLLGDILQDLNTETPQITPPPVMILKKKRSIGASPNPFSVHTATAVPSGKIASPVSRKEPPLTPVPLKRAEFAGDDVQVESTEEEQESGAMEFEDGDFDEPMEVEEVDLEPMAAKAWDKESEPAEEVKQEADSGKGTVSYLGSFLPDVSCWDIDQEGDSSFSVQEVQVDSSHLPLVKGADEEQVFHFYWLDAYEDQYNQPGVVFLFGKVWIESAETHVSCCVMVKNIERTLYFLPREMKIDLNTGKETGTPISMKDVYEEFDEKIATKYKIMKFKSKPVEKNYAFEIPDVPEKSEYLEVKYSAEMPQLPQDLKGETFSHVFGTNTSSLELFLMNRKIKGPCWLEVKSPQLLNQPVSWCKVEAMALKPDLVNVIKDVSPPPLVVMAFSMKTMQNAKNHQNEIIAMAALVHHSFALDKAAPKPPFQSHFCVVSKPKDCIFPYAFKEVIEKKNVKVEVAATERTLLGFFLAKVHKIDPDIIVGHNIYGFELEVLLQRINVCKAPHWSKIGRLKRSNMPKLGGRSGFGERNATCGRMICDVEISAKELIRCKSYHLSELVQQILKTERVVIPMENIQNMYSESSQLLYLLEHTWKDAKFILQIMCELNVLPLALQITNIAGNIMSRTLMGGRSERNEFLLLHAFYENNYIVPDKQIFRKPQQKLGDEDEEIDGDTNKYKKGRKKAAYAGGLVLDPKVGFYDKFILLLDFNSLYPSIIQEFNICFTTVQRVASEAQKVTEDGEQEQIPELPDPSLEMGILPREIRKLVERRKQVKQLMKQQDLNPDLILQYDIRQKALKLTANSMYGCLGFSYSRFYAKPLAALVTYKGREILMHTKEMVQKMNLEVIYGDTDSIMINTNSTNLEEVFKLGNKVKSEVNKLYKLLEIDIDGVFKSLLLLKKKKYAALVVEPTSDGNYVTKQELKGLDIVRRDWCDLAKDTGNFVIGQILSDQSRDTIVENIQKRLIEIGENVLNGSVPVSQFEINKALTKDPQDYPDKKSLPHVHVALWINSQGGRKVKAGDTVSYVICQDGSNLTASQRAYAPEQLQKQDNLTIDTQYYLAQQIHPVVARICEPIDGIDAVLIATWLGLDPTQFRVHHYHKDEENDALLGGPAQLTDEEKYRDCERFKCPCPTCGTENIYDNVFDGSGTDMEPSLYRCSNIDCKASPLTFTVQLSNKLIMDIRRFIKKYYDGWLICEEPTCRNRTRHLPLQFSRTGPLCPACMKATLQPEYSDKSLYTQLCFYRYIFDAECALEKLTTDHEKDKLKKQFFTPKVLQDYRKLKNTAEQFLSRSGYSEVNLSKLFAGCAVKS
The series can be described thus: Human polymerase alpha inhibition (Replizyme kit). Conditions: dose response. The class given is biochemical. Here is the method:
(§1) Calf polymerase alpha and human polymerase alpha investigations were performed with a kit available from Replizyme Ltd (Heslington, York, UK).

The target in the next series is T2, Calf polymerase alpha (Bos taurus, UniProt A0AAA9TD94).
T2 construct: purchased Replizyme Ltd (Heslington, York, UK)
T2 sequence (A0AAA9TD94 1-1441): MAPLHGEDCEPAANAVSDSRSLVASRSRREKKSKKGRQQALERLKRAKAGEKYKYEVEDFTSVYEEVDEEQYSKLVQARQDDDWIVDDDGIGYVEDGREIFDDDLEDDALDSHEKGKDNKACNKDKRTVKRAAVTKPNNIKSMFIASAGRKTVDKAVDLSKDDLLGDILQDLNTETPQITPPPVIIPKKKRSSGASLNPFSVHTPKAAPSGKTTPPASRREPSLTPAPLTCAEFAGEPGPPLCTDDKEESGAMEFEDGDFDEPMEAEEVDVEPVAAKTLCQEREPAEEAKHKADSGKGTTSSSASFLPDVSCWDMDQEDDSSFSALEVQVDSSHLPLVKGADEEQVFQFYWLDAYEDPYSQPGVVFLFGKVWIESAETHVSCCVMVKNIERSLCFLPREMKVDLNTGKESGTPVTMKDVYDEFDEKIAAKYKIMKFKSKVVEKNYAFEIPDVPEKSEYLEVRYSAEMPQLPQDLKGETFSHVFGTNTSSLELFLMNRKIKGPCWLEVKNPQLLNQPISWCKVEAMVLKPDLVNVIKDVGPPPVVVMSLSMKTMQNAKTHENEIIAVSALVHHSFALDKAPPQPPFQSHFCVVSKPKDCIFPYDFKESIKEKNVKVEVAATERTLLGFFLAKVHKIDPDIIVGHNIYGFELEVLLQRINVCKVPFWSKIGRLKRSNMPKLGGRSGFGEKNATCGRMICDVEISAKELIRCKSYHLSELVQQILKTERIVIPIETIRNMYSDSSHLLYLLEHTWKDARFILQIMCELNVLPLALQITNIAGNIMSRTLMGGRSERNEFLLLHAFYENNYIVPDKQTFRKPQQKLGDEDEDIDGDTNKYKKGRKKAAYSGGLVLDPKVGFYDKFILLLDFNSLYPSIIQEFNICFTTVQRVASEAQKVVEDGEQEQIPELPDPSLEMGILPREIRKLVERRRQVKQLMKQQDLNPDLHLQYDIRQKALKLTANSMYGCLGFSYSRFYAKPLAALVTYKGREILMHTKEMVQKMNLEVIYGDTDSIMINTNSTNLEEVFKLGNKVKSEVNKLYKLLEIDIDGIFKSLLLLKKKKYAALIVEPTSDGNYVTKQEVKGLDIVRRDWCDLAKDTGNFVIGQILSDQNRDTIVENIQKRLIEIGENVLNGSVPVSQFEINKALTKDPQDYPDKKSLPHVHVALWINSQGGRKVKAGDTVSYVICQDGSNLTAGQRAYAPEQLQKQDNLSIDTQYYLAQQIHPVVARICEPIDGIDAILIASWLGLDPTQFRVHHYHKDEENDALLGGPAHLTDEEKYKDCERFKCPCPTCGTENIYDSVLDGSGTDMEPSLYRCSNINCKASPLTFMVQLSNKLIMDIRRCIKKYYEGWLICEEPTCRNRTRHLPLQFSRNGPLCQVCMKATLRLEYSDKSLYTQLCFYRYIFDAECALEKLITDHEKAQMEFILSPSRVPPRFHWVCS
The series can be described thus: Calf polymerase alpha inhibition (Replizyme kit). The class given is biochemical. The conditions noted are these: for inhibition at 10 µM: single point screening; for IC50: dose response. The procedure: as §1

The term CC50 denotes the concentration giving 50% cytotoxicity. A high value points to lower toxicity to the cells. By IC50 is commonly meant the concentration that inhibits the measured activity by half. For orientation: inhibition means the relative decrease from the control value, in per cent. Turning to `Cc1ccc(NC(=O)C[C@H](CCCCN)NC(=O)Nc2ccc(OCc3ccccc3)cc2)cc1` [Compound 246, (S)-7-AMINO-3-[3-(4-BENZYLOXY-PHENYL)-UREIDO]-HEPTANOIC ACID P-TOLYLAMIDE], half-maximal cytotoxicity in series [1] (CC50 at 3 days) was put at 45.9 µM. The half-maximal inhibitory concentration (IC50) is 8 µM on human polymerase alpha and 9.8 µM against Calf polymerase alpha. The inhibition at 10 µM against Calf polymerase alpha turned out to be 46.6%.

`NCCCC[C@H](NC(=O)Nc1ccc(OCc2ccccc2)cc1)C(=O)NCc1ccco1` [Compound 302, (S)-6-AMINO-2-[3-(4-BENZYLOXY-PHENYL)-UREIDO]-HEXANOIC ACID (FURAN-2-YLMETHYL)-AMIDE] gave a CC50 at 3 days in series [1] of more than 100 µM. Besides, the IC50 was 72 µM against human polymerase alpha and more than 30 µM against Calf polymerase alpha. Further, the inhibition at 10 µM on Calf polymerase alpha was determined as 5%.

`Cc1ccc(NC(=O)[C@H](CCCCN)NC(=O)Nc2ccc(OCc3ccccn3)cc2)cc1` [Compound 299, (S)-6-AMINO-2-{3-[4-(PYRIDIN-2-YLMETHOXY)-PHENYL]-UREIDO}-HEXANOIC ACID P-TOLYLAMIDE]: in series [1], the CC50 at 3 days was more than 100 µM. In addition, the half-maximal inhibitory concentration (IC50) against human polymerase alpha was 68 µM; at Calf polymerase alpha it was more than 30 µM. On Calf polymerase alpha, the inhibition at 10 µM was found to be 16%.

In turn, `Cc1ccc(NC(=O)[C@H](CCCCN)NC(=O)Nc2ccc3c(c2)Cc2ccccc2-3)cc1` [Compound 125, (S)-6-AMINO-2-[3-(9H-FLUOREN-2-YL)-UREIDO]-HEXANOIC ACID P-TOLYLAMIDE] displayed a CC50 at 3 days in series [1] of 9.7 µM. Besides, the values for the IC50 against human polymerase alpha and against Calf polymerase alpha were 3 µM and 2.8 µM, respectively. Moreover, the inhibition at 10 µM at Calf polymerase alpha is 100%.

In the case of `NCCCC[C@H](NC(=O)Nc1ccc(-c2ccccc2)cc1)C(=O)Nc1ccc(C2CCCCC2)cc1` [Compound 119, (S)-6-AMINO-2-(3-BIPHENYL-4-YL-UREIDO)-HEXANOIC ACID (4-CYCLOHEXYL-PHENYL)-AMIDE], half-maximal cytotoxicity in series [1] (CC50 at 3 days) was put at 12.2 µM. The compound also registered a half-maximal inhibitory concentration (IC50) against human polymerase alpha of 1.5 µM. Further, at Calf polymerase alpha, the inhibition at 10 µM stood at 102% and the half-maximal inhibitory concentration (IC50) stood at 1.5 µM.

These data come from patent US20080171783A1, “COMPOSITIONS AND METHODS FOR TREATING HYPERPROLIFERATIVE DISEASE” (Migenix Inc., priority 2006, published 2008).
